Laboratory results published in patent US20240301319A1, “PERFUMING COMPOSITIONS” (FIRMNICH SA, priority 2017, published 2024).

Experiment: Volatility of perfuming compounds (Tables 4 to 10), with top/middle/bottom note type
Format: physicochemical
Method: In some aspects, the first perfume accord comprises perfuming compounds having a volatility ranging from 70,000 to 100 μg/l in air. In some aspects, perfuming compounds having a volatility ranging from 70,000 to 100 μg/l in air are referred to as “top notes”.
In some aspects, the second perfume accord comprises perfuming compounds having a volatility ranging from 99 to 50 μg/l in air. In some aspects, perfuming compounds having a volatility ranging from 99 to 50 μg/l in air are referred to as “middle notes”.
In some aspects, the third perfume accord comprises perfuming compounds having a volatility ranging from 49 to 0.1 μg/l in air. In some aspects, perfuming compounds having a volatility ranging from 49 to 0.1 μg/l in air are referred to as “bottom notes”.
Tables 4 to 10 describe top, middle and bottom note perfuming compounds for watery, green, fruity, citrus, sweet, gourmand and woody notes respectively.

[1] = Table 6, perfuming compounds having a fruity note
[2] = Table 6, perfuming compounds having a fruity note, note type by volatility
[3] = Table 7, citrus note, top, middle or bottom note
[4] = Table 8, perfuming compounds having a sweet note
[5] = Table 8, perfuming compounds having a sweet note, note type by volatility

For `CCCc1ccc(OC)cc1` [1-METHOXY-4-PROPYLBENZENE], the Volatility [1] was 629.29 μg/l air and the Type [2] was “TOP (perfuming compounds having a volatility ranging from 70,000 to 100 μg/l in air are referred to as “top notes”)”.

For `CC1(C)C2CC[C@@]1(C)C(=O)C2` (single isomer, unassigned; (+)), the Volatility [1] was 555.04 μg/l air and the Type [2] was “TOP (perfuming compounds having a volatility ranging from 70,000 to 100 μg/l in air are referred to as “top notes”)”.

With `CC1CCC(=O)O1` (racemic) [(+−)-4-PENTANOLIDE] the Volatility [1] was 2355.15 μg/l air, the Type [2] was “TOP (perfuming compounds having a volatility ranging from 70,000 to 100 μg/l in air are referred to as “top notes”)” and the “Volatility (μg/l air)” value (Table 7, citrus note) was 2355.15 μg/l air. The Type [3] was “Top”.

With `CC(=O)OCc1ccccc1` [benzyl acetate] the Volatility [1] was 507.38 μg/l air and the Type [2] was “TOP (perfuming compounds having a volatility ranging from 70,000 to 100 μg/l in air are referred to as “top notes”)”.

With `CC(=O)OCCC(C)CC(C)(C)C` (stereo not drawn) [3,5,5-TRIMETHYLHEXYL ACETATE] the Volatility [1] was 1461.80 μg/l air and the Type [2] was “TOP (perfuming compounds having a volatility ranging from 70,000 to 100 μg/l in air are referred to as “top notes”)”.

With `CC(C)=CCCC(C)=CCO` the Type [3] was “Middle”.

For `CC/C=C\C[C@H]1C(=O)CC[C@@H]1CC(=O)OC` (racemic), the Volatility [1] was 1.59 μg/l air and the Type [2] was “Bottom”.

With `CC(=O)OC(C)(C)Cc1ccccc1` [1,1-DIMETHYL-2-PHENYLETHYL ACETATE] the Volatility [1] was 198.02 μg/l air and the Type [2] was “TOP (perfuming compounds having a volatility ranging from 70,000 to 100 μg/l in air are referred to as “top notes”)”.

In the case of `CCOC(=O)Cc1ccccc1` [ETHYL PHENYLACETATE], the Volatility [1] is reported as 269.77 μg/l air and the Type [2] is reported as “TOP (perfuming compounds having a volatility ranging from 70,000 to 100 μg/l in air are referred to as “top notes”)”.

For `CCOC(=O)c1ccccc1` [ETHYL BENZOATE], the Volatility [1] was 1285.12 μg/l air and the Type [2] was “TOP (perfuming compounds having a volatility ranging from 70,000 to 100 μg/l in air are referred to as “top notes”)”.

In the case of `CC(C)=CCC/C(C)=C/CO`, the “Volatility (μg/l air)” value (Table 7, citrus note) is reported as 89.88 μg/l air and the Type [3] is reported as “Middle”.

In the case of `CCOC(=O)C1=C(C)C=CCC1(C)C`, the Volatility [1] is reported as 368.81 μg/l air and the Type [2] is reported as “TOP (perfuming compounds having a volatility ranging from 70,000 to 100 μg/l in air are referred to as “top notes”)”.

With `CCOc1cc(C=O)ccc1O` [3-ethoxy-4-hydroxybenzaldehyde] the Volatility [4] was 0.11 μg/l air and the Type [5] was “Bottom”.

For `CCCCCCC(C)=O` [2-OCTANONE], the Volatility [1] was 6639.71 μg/l air and the Type [2] was “TOP (perfuming compounds having a volatility ranging from 70,000 to 100 μg/l in air are referred to as “top notes”)”.

In the case of `CCC(=O)CC(C)CC` (stereo not drawn) [5-METHYL-3-HEPTANONE], the Volatility [1] is reported as 14141.42 μg/l air and the Type [2] is reported as “TOP (perfuming compounds having a volatility ranging from 70,000 to 100 μg/l in air are referred to as “top notes”)”.

In the case of `CCCCCCC1CCCC(=O)O1` (stereo not drawn) [6-hexyltetrahydro-2H-pyran-2-one], the Volatility [1] is reported as 4.64 μg/l air, the Type [2] is reported as “Bottom” and the Volatility [4] is reported as 4.64 μg/l air. For the same compound, the Type [5] was “Bottom”, the Volatility (Table 9, gourmand note) was 4.64 μg/l air and the Type (Table 9, perfuming compounds having a gourmand note, note type by volatility) was “Bottom”.

In the case of `CCOC(=O)/C(C)=C/C(C)C` [ethyl (2E)-2,4-dimethyl-2-pentenoate], the Volatility [1] is reported as 1618.37 μg/l air and the Type [2] is reported as “TOP (perfuming compounds having a volatility ranging from 70,000 to 100 μg/l in air are referred to as “top notes”)”.

With `CCCCCC(=O)CC` [3-OCTANONE] the Volatility [1] was 6787.60 μg/l air and the Type [2] was “TOP (perfuming compounds having a volatility ranging from 70,000 to 100 μg/l in air are referred to as “top notes”)”.

In the case of `CCOC(=O)C(C)C` [ETHYL ISOBUTYRATE], the Volatility [1] is reported as 132964.09 μg/l air and the Type [2] is reported as “TOP (perfuming compounds having a volatility ranging from 70,000 to 100 μg/l in air are referred to as “top notes”)”.

With `CCCCCC1(C)CCC(C)(C)C1=O` (racemic) the Volatility [1] was 265.42 μg/l air and the Type [2] was “TOP (perfuming compounds having a volatility ranging from 70,000 to 100 μg/l in air are referred to as “top notes”)”.
